# Test: Fluorescence activation of III-3 fluorophore by Pepper aptamers and mutants
# Format: biochemical
# Conditions: for Activation folds: 1 μM III-3 with 5 μM RNA
# Method: Preparation of Pepper or Pepper mutant aptamer according to the commonly used experimental method (1). 5 μM aptamer and 1 μM fluorophore were incubated in the detection buffer (40 mM HEPES, pH 7.4, 125 mM KCl, 5 mM MgCl2, 5% DMSO). The maximal excitation and emission peaks of the aptamer-fluorophore complexes were determined using a Synergy Neo2 multifunctional microplate reader. The fluorescence intensities of the aptamer-fluorophore complexes at the maximal excitation and emission peaks were determined using a Synergy Neo2 multifunctional microplate reader. The control sample (1 μM fluorophore without aptamer) was also measured under the same conditions. Then the ratios of fluorescence intensity were calculated. For example, the fluorescence maximal excitation and emission peaks of the complex of 5 μM F30-Pepper-2 and 1 μM III-3 fluorophore are 485 nm and 530 nm, respectively. The fluorescence intensity of the complex at 485±10 nm excitation and 530 nm±10 nm emission was 36,000, the fluorescence intensity of the control sample (1 μM III-3 fluorophore only) under the same detection conditions was 10. Thus, the activation ratio of F30-Pepper-2 aptamer on III-3 fluorophore was 3,600-fold.
# In order to detect the fluorescence activation of III-3 fluorophore by different Pepper mutant, the Pepper-1 sequence in F30-Pepper-1 was mutated according to Table 1. […] 1 μM III-3 was incubated with […] RNA and their fluorescence activation folds were determined according to the commonly used experimental method (5). […] In summary, many Pepper mutants containing single and multiple mutants still retain the ability to activate the fluorescence of III-3 fluorophore.
# In order to detect the activation of III-3 by modified Pepper, base-modified Pepper-3 was synthesized (SEQ ID NO: 6, the underlined nucleotides in […] GGCC contain deoxyribonucleotide bases) and Pepper-4 (SEQ ID NO: 7, the underlined nucleotides in […] GGGCC contain 2′-F modification) (synthesized by Shanghai GenePharma Co., Ltd), which contain deoxyribonucleotides replacement (shaded bases in FIG. 5A) or 2′-F modification (shaded bases in FIG. 5B) in the stem-loop region of Pepper. Detection of the fluorescence activation of III-3 fluorophore by these modified Peppers was carried out according to the commonly used experimental method (5).
# [1] = Activation of III-3 by Pepper mutants with multiple mutations
# [2] = Activation of III-3 by Pepper mutants with single mutation
Substance,Activation folds [1],Activation folds [2],other results
"C2A/G31U/G10A/C30U: F30-Pepper-1 mutant aptamer (NACAAUCGUAGCGUGUCGNNNACUGGCGCUUN; Pepper mutant embedded in F30 scaffold, chemistry not given here, further chemistry not given here)",3105 folds,,
"C2U/G31A/G10C/C30G: F30-Pepper-1 mutant aptamer (NUCAAUCGUCGCGUGUCGNNNACUGGCGCGAN; Pepper mutant embedded in F30 scaffold, chemistry not given here, further chemistry not given here)",2986 folds,,
"C27G: F30-Pepper-1 mutant aptamer (NCCAAUCGUGGCGUGUCGNNNACUGGGGCCGN; Pepper mutant embedded in F30 scaffold, chemistry not given here, further chemistry not given here) [Compound C27G]",,1875 folds,
"C2G/G31C/G10A/C30U: F30-Pepper-1 mutant aptamer (NGCAAUCGUAGCGUGUCGNNNACUGGCGCUCN; Pepper mutant embedded in F30 scaffold, chemistry not given here, further chemistry not given here)",2365 folds,,
"C2U/G31A: F30-Pepper-1 mutant aptamer (NUCAAUCGUGGCGUGUCGNNNACUGGCGCCAN; Pepper mutant embedded in F30 scaffold, chemistry not given here, further chemistry not given here)",3256 folds,,
"C2G/G31C/G10C/C30G: F30-Pepper-1 mutant aptamer (NGCAAUCGUCGCGUGUCGNNNACUGGCGCGCN; Pepper mutant embedded in F30 scaffold, chemistry not given here, further chemistry not given here)",2684 folds,,
"U9A: F30-Pepper-1 mutant aptamer (NCCAAUCGAGGCGUGUCGNNNACUGGCGCCGN; RNA, backbone and the base at N not given here; Pepper variant inserted in F30 scaffold RNA) [Compound U9A]",,2124 folds,
"C7U: F30-Pepper-1 mutant aptamer (NCCAAUUGUGGCGUGUCGNNNACUGGCGCCGN; RNA, backbone, methylation of C and the base at N not given here; Pepper aptamer mutant embedded in F30 scaffold) [Compound C7U]",,2268 folds,
"C2A/G31U/G10C/C30G: F30-Pepper-1 mutant aptamer (NACAAUCGUCGCGUGUCGNNNACUGGCGCGUN; Pepper mutant embedded in F30 scaffold, chemistry not given here, further chemistry not given here)",3475 folds,,
"C2A/G31U/G10U/C30A: F30-Pepper-1 mutant aptamer (NACAAUCGUUGCGUGUCGNNNACUGGCGCAUN; Pepper mutant embedded in F30 scaffold, chemistry not given here, further chemistry not given here)",3024 folds,,
"U14A: F30-Pepper-1 mutant aptamer (NCCAAUCGUGGCGAGUCGNNNACUGGCGCCGN; RNA, backbone and the base at N not given here; Pepper variant inserted in F30 scaffold RNA) [Compound U14A]",,1524 folds,
"C2G/G31C/G10C/C30G/U6G/C27U: F30-Pepper-1 mutant aptamer (NGCAAGCGUCGCGUGUCGNNNACUGGUGCGCN; RNA, backbone, methylation of C and the base at N not given here; Pepper aptamer mutant embedded in F30 scaffold)",736 folds,,
"G11A: F30-Pepper-1 mutant aptamer (NCCAAUCGUGACGUGUCGNNNACUGGCGCCGN; RNA, backbone, methylation of C and the base at N not given here; Pepper aptamer mutant embedded in F30 scaffold) [Compound G11A]",,1526 folds,
"C30A: F30-Pepper-1 mutant aptamer (NCCAAUCGUGGCGUGUCGNNNACUGGCGCAGN; RNA, backbone, methylation of C and the base at N not given here; Pepper aptamer mutant embedded in F30 scaffold) [Compound C30A]",,1596 folds,
"C29U: F30-Pepper-1 mutant aptamer (NCCAAUCGUGGCGUGUCGNNNACUGGCGUCGN; Pepper mutant embedded in F30 scaffold, chemistry not given here, further chemistry not given here) [Compound C29U]",,1437 folds,
"Pepper-3: base-modified Pepper, SEQ ID NO: 6, deoxyribonucleotides replacement in the stem-loop region (GGCCCCCAAUCGUGGCGUGUCGGCCUGCUUCGGCAGGCACUGGCGCCGGGGCC; deoxyribonucleotides at some stem-loop positions, underlined positions not recoverable, further chemistry not given here)",,,fluorescence activation of III-3 by base-modified Pepper (deoxyribonucleotide or 2′-F modification in stem-loop region): significantly activate the fluorescence of III-3 fluorophore
"G18U: F30-Pepper-1 mutant aptamer (NCCAAUCGUGGCGUGUCUNNNACUGGCGCCGN; RNA, backbone, methylation of C and the base at N not given here; Pepper aptamer mutant embedded in F30 scaffold) [Compound G18U]",,1024 folds,
"G11U: F30-Pepper-1 mutant aptamer (NCCAAUCGUGUCGUGUCGNNNACUGGCGCCGN; RNA, backbone, methylation of C and the base at N not given here; Pepper aptamer mutant embedded in F30 scaffold) [Compound G11U]",,1512 folds,
"C27U: F30-Pepper-1 mutant aptamer (NCCAAUCGUGGCGUGUCGNNNACUGGUGCCGN; Pepper mutant embedded in F30 scaffold, chemistry not given here, further chemistry not given here) [Compound C27U]",,3158 folds,
"C2G/G31C/G10U/C30A: F30-Pepper-1 mutant aptamer (NGCAAUCGUUGCGUGUCGNNNACUGGCGCACN; Pepper mutant embedded in F30 scaffold, chemistry not given here, further chemistry not given here)",3125 folds,,
"G28U: F30-Pepper-1 mutant aptamer (NCCAAUCGUGGCGUGUCGNNNACUGGCUCCGN; RNA, backbone and the base at N not given here; Pepper variant inserted in F30 scaffold RNA) [Compound G28U]",,873 folds,
"C2A/G31U: F30-Pepper-1 mutant aptamer (NACAAUCGUGGCGUGUCGNNNACUGGCGCCUN; Pepper mutant embedded in F30 scaffold, chemistry not given here, further chemistry not given here)",3365 folds,,
"C2U/G31A/G10U/C30A: F30-Pepper-1 mutant aptamer (NUCAAUCGUUGCGUGUCGNNNACUGGCGCAAN; Pepper mutant embedded in F30 scaffold, chemistry not given here, further chemistry not given here)",2583 folds,,
"C12U: F30-Pepper-1 mutant aptamer (NCCAAUCGUGGUGUGUCGNNNACUGGCGCCGN; Pepper mutant embedded in F30 scaffold, chemistry not given here, further chemistry not given here) [Compound C12U]",,2268 folds,
"C3U: F30-Pepper-1 mutant aptamer (NCUAAUCGUGGCGUGUCGNNNACUGGCGCCGN; RNA, backbone, methylation of C and the base at N not given here; Pepper aptamer mutant embedded in F30 scaffold) [Compound C3U]",,2016 folds,
"U6C: F30-Pepper-1 mutant aptamer (NCCAACCGUGGCGUGUCGNNNACUGGCGCCGN; RNA, backbone and the base at N not given here; Pepper variant inserted in F30 scaffold RNA) [Compound U6C]",,2088 folds,

# Reference: patent US12662676B2, “Aptamer nucleic acid molecule, and complex and application thereof” (EAST CHINA UNIVERSITY OF SCIENCE AND TECHNOLOGY, priority 2019, dated 2026)
